# Test results: patent US11730712B2, “Functionalized long-chain hydrocarbon mono- and di-carboxylic acids and derivatives thereof, and their use for the prevention or treatment of disease” (ESPERVITA THERAPEUTICS, INC., priority 2021, dated 2023)
# Several values for one entry are separate records, joined by “and”; a condition that tells them apart may be missing. Identical values can stand only once. Entries after “also recorded” stand apart in the source; their conditions may differ.
# Tests used:
# [1] = tested on: Hepa1-6 cells; assay: Drug interaction (combination) in Hepa1-6 cell proliferation; type: cell-based
# Description: FIGS. 42A-42B show drug interaction effect of Compound I-32 (FIG. 42A) and Compound I-1 (FIG. 42B) in combination with regorafenib in Hepa1-6 cell proliferation. In FIG. 42A, “1+0.05 (μM)” means 1 μM Compound I-32+0.05 μM regorafenib, etc. In FIG. 42B, “1+0.05 (μM)” means 1 μM Compound I-1+0.05 μM regorafenib, etc.
# In FIG. 46A, “1+0.05 (μM)” means 1 μM Compound I-1+0.05 μM sorafenib, etc. […] In FIG. 46B, “1+0.3 (μM)” means 1 μM Compound I-1+0.3 μM lenvatinib, etc. […] In FIG. 46C, “1+0.05 (μM)” means 1 μM Compound I-32+0.05 μM sorafenib, etc. […] In FIG. 46D, “1+0.3 (μM)” means 1 μM Compound I-32+0.3 μM lenvatinib, etc.
# [2] = tested on: hepatic cell death pathways (pyroptosis, necroptosis, apoptosis); assay: Hepatic cell death pathways by Western blot (gasdermin D, cleaved caspase 3, cleaved RIP3); type: in vivo, mouse; conditions: liver samples from HFCC/CDX mice, 100 mg/kg QD oral, 2 weeks
# Description: Compound I-1 and Compound I-32 were tested for their ability to alter hepatic cell death pathways (i.e., pyroptosis, necroptosis, and apoptosis) using liver samples from Example 7. Detection was performed on liver sections obtained from the experiment described in Example 7. Paraffin sections were deparaffinized. Western blot analysis was performed by the We-Met platform. Toulouse. France, France. Commercial primary antibodies for Gasdermin D (reference ab209845; Abcam, Cambridge, UK), cleaved caspase 3 (reference 9664, Cell Signaling Technology. Danvers, Mass.), cleaved receptor interacting protein 3 (RIP3; reference ab56164; Abcam) and actin (reference 4970; Cell Signaling Technology) for control, were used on the WES automated western blot system (Proteinsimple, San Jose, Calif.). Data are presented as mean±SEM, with n=6-10 mice per experimental group, as indicated in the legends. Two-way analysis of variance with Bonferroni post-test. Mann-Whitney U-test, or unpaired two-tailed Student's t-test were used for statistical analysis using GraphPad Prism software (GraphPad Software, La Jolla, Calif.). A P<0.05 was considered significant.
# [3] = tested on: mouse kidney; assay: Kidney histology in DEN NASH-HCC mice after 4 weeks of treatment; type: in vivo; design: key to Tubular injury score, Average / Tubular mitoses score, Average / Tubular vacuoles score, Average / Interstitial inflammation score, Average / Interstitial fibrosis score, Average / Glomerular score, Average: 0 = not present to 5 = severe, overwhelming change; mean of mice; key to Tubular mitoses score, individual mice / Interstitial inflammation score, individual mice / Interstitial fibrosis score, individual mice / Glomerular score, individual mice / Tubular injury score, individual mice / Tubular vacuoles score, individual mice: 0—not present; 1—minimal, inconspicuous change; 2—slight, noticeable but not a prominent feature; 3—moderate, prominent feature; 4—marked, dominant but not overwhelming feature; 5—severe, overwhelming change; conditions: for Glomerular score, individual mice / Interstitial fibrosis score, individual mice / Interstitial inflammation score, individual mice / Tubular injury score, individual mice / Tubular mitoses score, individual mice / Tubular vacuoles score, individual mice / Glomerular score, Average / Interstitial fibrosis score, Average / Interstitial inflammation score, Average / Tubular injury score, Average / Tubular mitoses score, Average / Tubular vacuoles score, Average: kidney; for Glomerular score, Average / Interstitial fibrosis score, Average / Interstitial inflammation score, Average / Tubular injury score, Average / Tubular mitoses score, Average / Tubular vacuoles score, Average: 8 mice
# Description: Kidney Histology. Following fixation with 10% neutral buffered formalin for 46 hours, kidneys were cleaved longitudinally through hilium and immersed in 70% ethanol. Kidneys were then processed, paraffin embedded, serially sectioned and stained with haematoxylin and eosin (H&E) and Masson's Trichrome (MTC) by the McMaster Immunology Research Centre histology Core Facility. Blinded kidney histological scores for tubular injury, tubular mitoses, tubular vacuoles, interstitial inflammation, interstitial fibrosis, glomerular were assigned by pathologists.
# Kidney Histology. […] In Table 15, pathologist's scoring is as follows: 0—not present; 1—minimal, inconspicuous change; 2—slight, noticeable but not a prominent feature; 3—moderate, prominent feature; 4—marked, dominant but not overwhelming feature; 5—severe, overwhelming change.
# [4] = tested on: C57BL6/J mice; assay: Indirect calorimetry (CLAMS) in fructose-fed C57BL6 mice; type: in vivo, mouse; conditions: 100 mg/kg oral gavage, refed mice with RER >1
# Description: Materials and Methods. All experiments were carried out using the methods approved by the Animal Research Ethics Board at McMaster University, Canada (Steinberg Laboratory Animal Utilization Protocol #16-12-42). 8-Week-old male C57BL6/J mice were ordered from Jackson Laboratory, Bar Harbor, Me. and housed at the McMaster University Central Animal Facility. Animals were housed in the ventilated cages racks system and provided with ad libitum access to normal chow diet (Teklad 8640 22/5 rodent diet, procured from Envigo, Mississauga ON) and water supplemented with fructose (30% weight/volume, made fresh weekly) for at least 2-weeks before testing commenced. […] Data were analyzed using one-way analyses of variance followed by a Tukey's multiple comparisons post hoc test where appropriate. […]
# Experimental and Results. Respiratory Exchange Ratio (RER) and related metabolic parameters were measured using the Comprehensive Lab Animal Monitoring System (CLAMS, Columbus Instruments, Columbus, Ohio). […] RER was monitored and those animals with RER values >1 were administered either vehicle (1.5% Carboxymethyl cellulose and 0.2% Tween 20) alone or vehicle containing Compound I-1 or Compound I-32 at a dose of 100 mg/kg via oral gavage. Animals remained in the metabolic cages and RER, activity level, locomotor activity, and food intake were monitored for 24 hours. […]
# [5] = tested on: female Wistar Han rats; assay: 4-day oral gavage toxicity study in female rats; conditions: for clinical chemistry: globulin concentration and albumin:globulin ratio: 100 mg/kg/day Compound I-1 or 300 mg/kg/day Compound I-1 or Compound I-32; for compound-related effects in hematology or coagulation test results / compound-related mortality, clinical observations, body weight effects, changes in food consumption / dose whose effects were considered nonadverse: female rats, 4 days; for compound-related effects in hematology or coagulation test results / compound-related mortality, clinical observations, body weight effects, changes in food consumption: 100 or 300 mg/kg/day oral gavage; for dose whose effects were considered nonadverse: oral gavage; for microscopic findings in the liver: ≥100 mg/kg/day Compound I-1 or 300 mg/kg/day Compound I-32
SMILES,drug interaction effect in combination with lenvatinib ([1]; at all tested concentrations),"hepatic cell death pathways (pyroptosis, apoptosis, necroptosis) by Western blot [2]",kidney pathological differences vs Vehicle [3],"Glomerular score, individual mice [3]","Interstitial fibrosis score, individual mice [3]","Interstitial inflammation score, individual mice [3]","Tubular injury score, individual mice [3]","Tubular mitoses score, individual mice [3]","Tubular vacuoles score, individual mice [3]","Glomerular score, Average [3]","Interstitial fibrosis score, Average [3]","Interstitial inflammation score, Average [3]","Tubular injury score, Average [3]","Tubular mitoses score, Average [3]","Tubular vacuoles score, Average [3]",Respiratory Exchange Ratio (RER) compared to vehicle treated group [4],clinical chemistry: globulin concentration and albumin:globulin ratio [5],compound-related effects in hematology or coagulation test results [5],"compound-related mortality, clinical observations, body weight effects, changes in food consumption [5]",dose whose effects were considered nonadverse [5] [mg/kg/day],other results
"CC(C)(CCCCc1cccc(CCCCC(C)(C)C(=O)O)c1)C(=O)O [Compound I-32, 6-[3-(5-carboxy-5-methylhexyl)-phenyl]-2,2-dimethylhexanoic acid]",synergism,significantly repressed pyroptosis and apoptosis cell death pathways with a trend towards necroptosis,no pathological differences,0 and 0.5 (5×) and 1 (2×),0.5 (2×) and 1 (3×) and 2 and 1.5 (2×),0 (3×) and 2.5 and 1 and 1.5 and 0.5 (2×),0 (3×) and 1.5 (4×) and 1,0 (4×) and 1 (2×) and 0.5 (2×),0.5 and 3.5 and 1.5 and 3 and 2 and 1 (3×),0.56,1.13,0.75,0.88,0.38,1.69,significant reduction in the RER,minimally lower globulin concentration and minimally higher albumin:globulin ratio,No Compound I-1- or Compound I-32-related effects in hematology or coagulation test results were identified,"No Compound I-1- or Compound I-32-related mortality, clinical observations, body weight effects, or changes in food consumption were noted",300,drug interaction effect in combination with sorafenib ([1]; at various concentrations): synergism; clinical chemistry: serum urea nitrogen concentration ([5]; 300 mg/kg/day): Minimally lower serum urea nitrogen concentration; microscopic findings in the liver [5]: increase in mitoses in hepatocytes; also recorded: periportal hepatocyte vacuolation
"CC(C)(CCCCc1ccc(CCCCC(C)(C)C(=O)O)cc1)C(=O)O [Compound I-1, 6-[4-(5-carboxy-5-methylhexyl)-phenyl]-2,2-dimethylhexanoic acid]",synergism,significantly repressed pyroptosis and apoptosis cell death pathways with a trend towards necroptosis,no pathological differences,0 (3×) and 1 (2×) and 0.5 (3×),1 (4×) and 0.5 (2×) and 0 and 1.5,0 (5×) and 0.5 (3×),1.5 and 1 and 0.5 (4×) and 0 (2×),1 and 0 (3×) and 0.5 (4×),3.5 and 1.5 (3×) and 3 and 0.5 (2×) and 1,0.44,1.0,0.19,0.56,0.38,1.63,significant reduction in the RER,minimally lower globulin concentration and minimally higher albumin:globulin ratio,No Compound I-1- or Compound I-32-related effects in hematology or coagulation test results were identified,"No Compound I-1- or Compound I-32-related mortality, clinical observations, body weight effects, or changes in food consumption were noted",100,"drug interaction effect in combination with sorafenib ([1]; at all tested concentrations): synergism; microscopic findings in the kidney ([5]; 300 mg/kg/day): tubular degeneration/necrosis, tubular regeneration, and increased mitoses; microscopic findings in the liver [5]: increase in mitoses in hepatocytes"
